Source: a melting point compilation (Tetko et al.; mined from patent text by program, amines drawn as free bases though some values may be those of a salt)

**Q.** For `O=C1c2ccccc2C(=O)N1CC(=O)N1c2ccccc2N(CCc2ccccc2)C(=O)[C@H]2CCC[C@H]21` (relative stereo), which melting point is on record?
**A.** The melting point was 178 to 179 °C.

**Q.** Which melting point does the source give for `CCCCCCCNC(=O)N(C)c1cccc(-c2ccc(CCC(=O)O)c(F)c2)c1` here?
**A.** The melting point was 92 to 93 °C.

**Q.** Which melting point does the source give for `CCC(=O)NCCC1CCc2ccc3nc(C)oc3c21` (configuration not stated) here?
**A.** The melting point was 111 to 113 °C.

**Q.** With `COC(=O)c1c(C(F)F)nc(C(F)(F)F)c(C(=O)OC)c1CSC` as the molecule, how does the melting point read?
**A.** The melting point was 50.5 to 51.5 °C.

**Q.** With `O=c1[nH]c(=O)n(CCCBr)c2ccccc12` as the molecule, how does the melting point read?
**A.** The melting point was 159 to 170 °C.

**Q.** With `CCCN(CCC)C(=O)c1cc2ccccc2c(-c2ccccc2Cl)n1` as the molecule, how does the melting point read?
**A.** The melting point was 101 °C.

**Q.** For `Oc1cccc(CCCCn2ccnc2)c1`, which melting point is on record?
**A.** Its melting point is 133 to 134 °C.

**Q.** For `CC(=O)Nc1ccc2nc(CN3CCCCC3)ccc2c1`, which melting point is on record?
**A.** The melting point was 182 to 184 °C.

**Q.** Which melting point does the source give for `Cc1ccc(N2C(=O)C(O)=C(C(=O)c3ccc(C(C)C)cc3)C2c2ccc(OC(C)(C)C)cc2)nn1` (configuration not stated) here?
**A.** Its melting point is 276 to 277 °C.

**Q.** For `O=c1nc(-c2cccc(CO)n2)sc2ccccc12`, which melting point is on record?
**A.** Its melting point is 208 to 209 °C.

**Q.** Which melting point does the source give for `CC(=O)Nc1ccc(/C=C/C(=O)NCC(=O)N(C)c2ccc(C)c(CCl)c2C)cn1` here?
**A.** The melting point was 218 to 220 °C.

**Q.** With `Cc1cncc(-c2nc3cc(NC(=O)c4c(C(=O)N5CCC5)cnn4C)ccn3n2)c1` as the molecule, how does the melting point read?
**A.** Its melting point is 262 to 264 °C.

**Q.** For `Cc1cc(F)ccc1C=CC#N`, which melting point is on record?
**A.** The melting point was 86 to 87 °C.

**Q.** For `CCCn1c(=O)c(-c2ccccc2)c2n(c1=O)CCCS2(=O)=O`, which melting point is on record?
**A.** The melting point was 179 to 180 °C.

**Q.** With `O=[N+]([O-])C1(Cl)C=CC(S(=O)c2ccc(Br)cc2)=CC1` (configuration not stated) as the molecule, how does the melting point read?
**A.** The melting point was 138 to 140 °C.

**Q.** Which melting point does the source give for `C/C(=C\CNc1ncnc2nc(N(C)C)[nH]c12)CO` here?
**A.** Its melting point is 245 to 249 °C.

**Q.** Which melting point does the source give for `CNC(=O)c1cc2c(Oc3ccc(C4=NCCN4)cc3)cncc2s1` here?
**A.** The melting point was over 280 °C.

**Q.** Which melting point does the source give for `CC#CC(C)(C)NC(=O)C(Br)CC` (configuration not stated) here?
**A.** The melting point was 79 to 81 °C.

**Q.** With `COc1c(OC2CCC(=O)CC2)ccnc1C` as the molecule, how does the melting point read?
**A.** Its melting point is 56 to 57 °C.

**Q.** Which melting point does the source give for `CC1(C)C=C(C(=O)NC2COC(C)(C)OCC2O)C(C)(C)N1` (configuration not stated) here?
**A.** Its melting point is 125 to 127 °C.

**Q.** With `CCOP(=S)(OCC)SC(=CC(=O)c1cccc(Br)c1)C(=O)O` as the molecule, how does the melting point read?
**A.** The melting point was 107 to 111 °C.

**Q.** For `CCOC(=O)Cn1nc(-c2cc(C(C)(C)C)c(O)c(C(C)(C)C)c2)c2cccnc21`, which melting point is on record?
**A.** Its melting point is 117 to 120 °C.

**Q.** With `Cc1cccc(N2CCN(CCCON3C(=O)c4ccccc4C3=O)CC2)c1` as the molecule, how does the melting point read?
**A.** The melting point was 127 to 128 °C.

**Q.** Which melting point does the source give for `Cc1cc2c(cc1Br)C(C)(C)C=CC2(C)C` here?
**A.** Its melting point is 103 to 105 °C.

**Q.** For `COc1ccc(S(=O)(=O)NC(=N)CCN2CCOC2=O)cc1`, which melting point is on record?
**A.** The melting point was 115 to 118 °C.

**Q.** With `COc1cccc2c(=O)cc(C=Cc3ccc(C#N)cc3)oc12` as the molecule, how does the melting point read?
**A.** The melting point was 274 to 275 °C.

**Q.** Which melting point does the source give for `CCc1nc2c(N)nc3ccccc3c2n1CC1(O)CCCC1` here?
**A.** Its melting point is 210 °C.

**Q.** Which melting point does the source give for `CCc1c([N+](=O)[O-])c(C(N)=O)nn1C1CN(CC)C1` here?
**A.** Its melting point is 177 to 179 °C.

**Q.** With `CC=CCn1c(C)c(C)c2cnnc(SCc3ccc(Cl)cc3Cl)c21` as the molecule, how does the melting point read?
**A.** The melting point was 81 to 85 °C.

**Q.** Which melting point does the source give for `O=C1CC(c2ccccc2)Cc2[nH]ccc(=O)c21` (configuration not stated) here?
**A.** The melting point was 207 to 209 °C.

**Q.** Which melting point does the source give for `O=C(c1nc(-c2ccccc2)nc2ccccc12)N1CCCC1` here?
**A.** The melting point was 153 °C.

**Q.** With `CCn1cc(C(=O)O)c(=O)c2cc(F)c(N[C@@H]3CCC[C@@H]3N)cc21` (relative stereo) as the molecule, how does the melting point read?
**A.** Its melting point is 233 to 235 °C.

**Q.** With `COC(=O)Oc1c(Cl)c(-c2ccc(Cl)cc2)oc(=O)c1-c1c(C)cc(C)cc1C` as the molecule, how does the melting point read?
**A.** The melting point was 136 to 138 °C.

**Q.** With `CC1NC(=O)CC2(C)CC1c1ccccc1O2` (configuration not stated) as the molecule, how does the melting point read?
**A.** The melting point was 164 °C.

**Q.** Which melting point does the source give for `N#Cc1nn(-c2c(Cl)cc(C(F)(F)F)cc2Cl)c(N)c1-c1cccc2ccccc12` here?
**A.** Its melting point is 208 °C.

**Q.** Which melting point does the source give for `Clc1ccccc1C1(c2ccc(-c3ccccc3)cc2)CO1` (configuration not stated) here?
**A.** Its melting point is 70 °C.

**Q.** For `S=C(NCn1nnc2ccccc21)NCn1nnc2ccccc21`, which melting point is on record?
**A.** Its melting point is 205 to 206 °C.

**Q.** For `CCOc1c(C(=O)O)sc2ccc(OC)cc12`, which melting point is on record?
**A.** Its melting point is 162 to 164 °C.

**Q.** Which melting point does the source give for `COc1ccc(Nc2nc(-c3ccncc3)cs2)nc1` here?
**A.** Its melting point is 213 to 214 °C.

**Q.** Which melting point does the source give for `Cc1nc(SCc2cnccc2C(=O)O)sc1CC(=O)O` here?
**A.** The melting point was 207 to 211 °C.

**Q.** For `CC(c1cccc(F)c1)n1ncc(-c2ccc(S(N)(=O)=O)cc2)c(-c2ccc(F)cc2)c1=O` (configuration not stated), which melting point is on record?
**A.** Its melting point is 192 to 194 °C.

**Q.** Which melting point does the source give for `Cc1nc(N2N=C(c3ccc([N+](=O)[O-])cc3)c3cc4c(cc3CC2C)OCO4)no1` (configuration not stated) here?
**A.** Its melting point is 191 to 200 °C.

**Q.** Which melting point does the source give for `C=Cc1ccc(S(=O)(=O)On2nnc3ccc(C=C)cc32)cc1` here?
**A.** Its melting point is 85 to 87 °C.

**Q.** Which melting point does the source give for `Cc1ccc(-c2cc(F)c(F)cc2-c2ccc(S(C)(=O)=O)cc2)cc1` here?
**A.** The melting point was 147 to 148 °C.

**Q.** For `CCCCc1ncc(CO)c(NCc2ccc(-c3ccccc3)c(-c3nnnn3C(c3ccccc3)(c3ccccc3)c3ccccc3)c2)n1`, which melting point is on record?
**A.** Its melting point is 126 to 129 °C.

**Q.** Which melting point does the source give for `CSC(C(=O)c1cc(-c2ccccc2)on1)N1CCOCC1` (configuration not stated) here?
**A.** Its melting point is 124 to 126 °C.

**Q.** With `COc1cc(I)cc(C(N)=O)c1` as the molecule, how does the melting point read?
**A.** The melting point was 175 to 176 °C.

**Q.** With `O=Cc1c(OCc2ccccc2)cccc1C1OCCCO1` as the molecule, how does the melting point read?
**A.** Its melting point is 85 to 87 °C.

**Q.** With `CC(=O)Nc1ccc2ccn(C3CCN(CCc4ccc(F)cc4)CC3)c2c1` as the molecule, how does the melting point read?
**A.** Its melting point is 195 to 196 °C.

**Q.** Which melting point does the source give for `O=C1c2ccccc2OCC1C(=O)C(F)(F)F` (configuration not stated) here?
**A.** Its melting point is 81 to 83 °C.

**Q.** With `CC(C)(C)Sc1c(CC(C)(C)C(=O)O)n(Cc2ccc(Cl)cc2)c2ccc(OCc3ccc(Cl)s3)cc12` as the molecule, how does the melting point read?
**A.** The melting point was 182 to 184 °C.

**Q.** Which melting point does the source give for `CCCCNC(=N)c1ccc2[nH]c(=O)[nH]c2c1` here?
**A.** Its melting point is 168 °C.

**Q.** With `CCCC1=C(C(=O)OCC)C(c2ccccc2OCC)c2c[nH]nc2N1` (configuration not stated) as the molecule, how does the melting point read?
**A.** Its melting point is 203 °C.

**Q.** Which melting point does the source give for `CCOC(=O)c1c(Cl)nc2ccccc2c1-c1ccc(F)cc1` here?
**A.** The melting point was 113 to 114 °C.

**Q.** With `CC(c1ccccc1Cl)n1cnc2cnc3ccccc3c21` (configuration not stated) as the molecule, how does the melting point read?
**A.** Its melting point is 156 to 158 °C.

**Q.** Which melting point does the source give for `C[C@]12C[C@H](c3ccc(OCCCCCS(=O)(=O)CCCC(F)(F)C(F)(F)F)cc3)[C@@H]3c4ccc(OC5CCCC5)cc4CC[C@H]3[C@@H]1CC[C@@H]2O` here?
**A.** Its melting point is 166 °C.

**Q.** Which melting point does the source give for `Cc1cccc(Br)c1C(=O)N[C@@H](Cc1ccc(-c2c(C)n(C)c(=O)n(C)c2=O)cc1)C(=O)O` here?
**A.** Its melting point is 240 to 242 °C.

**Q.** With `COCCOC(=O)NNC(=O)OCCOC` as the molecule, how does the melting point read?
**A.** The melting point was 71.3 to 76.5 °C.

**Q.** Which melting point does the source give for `O=C(Nc1cc(Cl)ccc1-c1nnn[nH]1)c1cnn(-c2ccc(Cl)cc2)c1C(F)(F)F` here?
**A.** The melting point was 176 to 180 °C.

**Q.** With `CC(=O)c1c(O)cccc1OCC(F)COc1cccc(O)c1C(C)=O` as the molecule, how does the melting point read?
**A.** Its melting point is 162 to 165 °C.

**Q.** Which melting point does the source give for `CC(C)P1(=O)c2ccccc2CN1c1cccc(C(F)(F)F)c1` (configuration not stated) here?
**A.** Its melting point is 117 to 119 °C.

**Q.** Which melting point does the source give for `COC(=O)C1(CCCN2CCN(c3ccccc3)CC2)Sc2ccccc2CCC1=O` (configuration not stated) here?
**A.** The melting point was 101 to 103 °C.

**Q.** For `CN1CCN(CCCCC(=O)N2c3ccccc3C(=O)Nc3cccnc32)CC1`, which melting point is on record?
**A.** The melting point was 151 to 153 °C.

**Q.** For `Nc1nc2ccccc2c2c1nc(CNC(=O)C1CC1)n2CC1(O)CCCCC1`, which melting point is on record?
**A.** Its melting point is over 250 °C.

**Q.** With `CC(C)(C)[C@H]1CC[C@H](CCC(=O)N2C(=O)OC[C@@H]2Cc2ccccc2)CC1` as the molecule, how does the melting point read?
**A.** The melting point was 132 to 135 °C.

**Q.** Which melting point does the source give for `CCCCCCCCCCCCCCCCSCC(C)(CO)C(=O)OC` (configuration not stated) here?
**A.** Its melting point is 25 to 27 °C.

**Q.** With `NC(=O)c1sc2nccc(N3CCCN(c4ccc(Cl)cc4)CC3)c2c1N` as the molecule, how does the melting point read?
**A.** The melting point was 92 to 96 °C.

**Q.** Which melting point does the source give for `O=[N+]([O-])c1ccc2c(c1)S(=O)(=O)NCN2CCF` here?
**A.** The melting point was 165 to 166 °C.

**Q.** For `CN(C)CCNC(=O)[C@H]1C[C@H](NC(=O)Nc2ccccc2)c2c(Cl)cc(Cl)cc2N1` (relative stereo), which melting point is on record?
**A.** The melting point was 223 to 224 °C.

**Q.** Which melting point does the source give for `CCOC(=O)c1[nH]c2cc(Cl)cc(Cl)c2c1NCC(=O)c1cccc(F)c1` here?
**A.** The melting point was 234 to 235 °C.

**Q.** With `O=C1Cc2cccc(C(=O)c3ccccc3F)c2N1` as the molecule, how does the melting point read?
**A.** The melting point was 209 to 210 °C.

**Q.** Which melting point does the source give for `COc1ccc(Oc2cccc(C)c2)c(NS(C)(=O)=O)c1` here?
**A.** Its melting point is 87 to 88 °C.
